# Earlier results, collected in US8455667B2, “Duloxetine compositions in the form of a powder for suspension in a liquid” (priority 2005, dated 2013).
# Columns and labels:
# [1] = in vivo
# [2] = test system: cholinergic receptors; settings: in vitro
# [3] = test system: dopaminergic receptors; settings: in vitro
# [4] = test system: adrenergic receptors; settings: in vitro
# [5] = test system: monoamine oxidase (MAO)
# [6] = test system: histaminergic receptors; settings: in vitro
compound,measurement,setting,value
"CNCC[C@H](Oc1cccc2ccccc12)c1cccs1 [Duloxetine, (S)-N-methyl-3-(1-naphthyloxy)-3-(2-thienyl) propan-1-amine]",mean plasma elimination half-life,[1],12.1 h
same,affinity for cholinergic receptors,[2],no significant affinity
same,affinity for dopaminergic receptors,[3],no significant affinity
same,affinity for adrenergic receptors,[4],no significant affinity
same,inhibition of monoamine oxidase (MAO),[5],does not inhibit
same,affinity for histaminergic receptors,[6],no significant affinity
same,dosage hydrolyzed to 1-naphthol,"pH 1.0, within one hour",50%
same,dosage degraded to 1-Naphthol,"pH 2.0, in one hour",10%
same,time for 10% degradation,pH 4.0,up to 63 hours
